Measured values as given in PubChem BioAssay AID2060883 (Molecular Pharmacology Branch, DTP, NCI, 2025).

Test system: 843782-103-R-J1-PDC complex spheroid viability
Assay: Anticancer human tumor 843782-103-R-J1-PDC patient-derived lung adenocarcinoma cell line growth inhibition [RAS]
Conditions: for IC50: curve of first compound; for viability, T/C: stronger effect = lower value
Outline: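 Multi-cell-type spheroids: tumor cells plus HUVEC endothelial cells and mesenchymal stem cells. RAS-pathway inhibitors were combined with targeted agents, each dosed in half-log steps down from clinical Cmax, or from 10 microM when Cmax was unknown.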
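Note: viability read after seven days of compound exposure.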

CCC(CC)c1cc(NC2CCC(N)C2)n2nccc2n1 (centres undefined) + C#Cc1c(F)ccc2cc(O)cc(-c3ncc4c(N5CC6CCC(C5)N6)nc(OCC56CCCN5CC(F)C6)nc4c3F)c12 was tested, and the IC50 (second compound 0.0316 µM) was 1850 nM, the IC50 (second compound 0.1 µM) was 1900 nM and the IC50 (second compound 0.316 µM) was 1820 nM. It also gave an IC50 (second compound 1 µM) of 1740 nM, an IC50 (second compound 3.16 µM) of 1260 nM and an IC50 (second compound 10 µM) of 642 nM. The viability, T/C (second compound 0.0316 µM, first compound 0.0316 µM) was 107%, the viability, T/C (second compound 0.0316 µM, first compound 0.1 µM) was 102% and the viability, T/C (second compound 0.0316 µM, first compound 0.316 µM) was 100%. It also gave a viability, T/C (second compound 0.0316 µM, first compound 1 µM) of 108%, a viability, T/C (second compound 0.0316 µM, first compound 3.16 µM) of 2.66% and a viability, T/C (second compound 0.0316 µM, first compound 10 µM) of 0.77%. It also gave a viability, T/C (second compound 0.1 µM, first compound 0.0316 µM) of 112%, a viability, T/C (second compound 0.1 µM, first compound 0.1 µM) of 105% and a viability, T/C (second compound 0.1 µM, first compound 0.316 µM) of 114%. The viability, T/C (second compound 0.1 µM, first compound 1 µM) was 111%, the viability, T/C (second compound 0.1 µM, first compound 3.16 µM) was 2.16% and the viability, T/C (second compound 0.1 µM, first compound 10 µM) was 0.62%. For the same compound, the viability, T/C (second compound 0.316 µM, first compound 0.0316 µM) was 113%, the viability, T/C (second compound 0.316 µM, first compound 0.1 µM) was 109% and the viability, T/C (second compound 0.316 µM, first compound 0.316 µM) was 99.4%. The viability, T/C (second compound 0.316 µM, first compound 1 µM) was 102%, the viability, T/C (second compound 0.316 µM, first compound 3.16 µM) was 2.35% and the viability, T/C (second compound 0.316 µM, first compound 10 µM) was 0.68%. For the same compound, the viability, T/C (second compound 1 µM, first compound 0.0316 µM) was 89.2%, the viability, T/C (second compound 1 µM, first compound 0.1 µM) was 98% and the viability, T/C (second compound 1 µM, first compound 0.316 µM) was 96.7%. The viability, T/C (second compound 1 µM, first compound 1 µM) was 95.2%, the viability, T/C (second compound 1 µM, first compound 3.16 µM) was 1.42% and the viability, T/C (second compound 1 µM, first compound 10 µM) was 0.57%. For the same compound, the viability, T/C (second compound 3.16 µM, first compound 0.0316 µM) was 86.4%, the viability, T/C (second compound 3.16 µM, first compound 0.1 µM) was 83.9% and the viability, T/C (second compound 3.16 µM, first compound 0.316 µM) was 91.3%. For the same compound, the viability, T/C (second compound 3.16 µM, first compound 1 µM) was 62.4%, the viability, T/C (second compound 3.16 µM, first compound 3.16 µM) was 2.2% and the viability, T/C (second compound 3.16 µM, first compound 10 µM) was 0.56%. For the same compound, the viability, T/C (second compound 10 µM, first compound 0.0316 µM) was 67.2%, the viability, T/C (second compound 10 µM, first compound 0.1 µM) was 59.9% and the viability, T/C (second compound 10 µM, first compound 0.316 µM) was 64.2%. The viability, T/C (second compound 10 µM, first compound 1 µM) was 41.5%, the viability, T/C (second compound 10 µM, first compound 3.16 µM) was 0.51% and the viability, T/C (second compound 10 µM, first compound 10 µM) was 0.22%.
In the case of C=CC(=O)N1CCN(c2nc(OCC3CCCN3C)nc3c(F)c(-c4nc(N)cc(C)c4C(F)(F)F)c(Cl)cc23)C(C)C1 (centres undefined) + CCn1c(-c2cccnc2C(C)OC)c2c3cc(ccc31)N1CCOC(CC(NC(=O)C(C(C)C)N(C)C(=O)C3(F)CCN(C(=O)C#CC(C)(C)N(C)C)CC3)C(=O)N3CCCC(N3)C(=O)OCC(C)(C)C2)C1, the IC50 (second compound 0.000949 µM) is reported as > 1000 nM, the IC50 (second compound 0.003 µM) is reported as > 1000 nM and the IC50 (second compound 0.00949 µM) is reported as > 1000 nM. For the same compound, the IC50 (second compound 0.03 µM) was > 1000 nM, the IC50 (second compound 0.0949 µM) was > 1000 nM and the IC50 (second compound 0.3 µM) was > 1000 nM. It also gave a viability, T/C (second compound 0.000949 µM, first compound 0.00316 µM) of 80.5%, a viability, T/C (second compound 0.000949 µM, first compound 0.01 µM) of 67.2% and a viability, T/C (second compound 0.000949 µM, first compound 0.0316 µM) of 75.9%. The viability, T/C (second compound 0.000949 µM, first compound 0.1 µM) was 77.9%, the viability, T/C (second compound 0.000949 µM, first compound 0.316 µM) was 72.8% and the viability, T/C (second compound 0.000949 µM, first compound 1 µM) was 78.5%. The viability, T/C (second compound 0.003 µM, first compound 0.00316 µM) was 71.4%, the viability, T/C (second compound 0.003 µM, first compound 0.01 µM) was 69.3% and the viability, T/C (second compound 0.003 µM, first compound 0.0316 µM) was 77.7%. It also gave a viability, T/C (second compound 0.003 µM, first compound 0.1 µM) of 81.6%, a viability, T/C (second compound 0.003 µM, first compound 0.316 µM) of 78.3% and a viability, T/C (second compound 0.003 µM, first compound 1 µM) of 74.4%. For the same compound, the viability, T/C (second compound 0.00949 µM, first compound 0.00316 µM) was 63.6%, the viability, T/C (second compound 0.00949 µM, first compound 0.01 µM) was 62.4% and the viability, T/C (second compound 0.00949 µM, first compound 0.0316 µM) was 77.5%. The viability, T/C (second compound 0.00949 µM, first compound 0.1 µM) was 80.1%, the viability, T/C (second compound 0.00949 µM, first compound 0.316 µM) was 88.1% and the viability, T/C (second compound 0.00949 µM, first compound 1 µM) was 74.4%. For the same compound, the viability, T/C (second compound 0.03 µM, first compound 0.00316 µM) was 82.4%, the viability, T/C (second compound 0.03 µM, first compound 0.01 µM) was 71.6% and the viability, T/C (second compound 0.03 µM, first compound 0.0316 µM) was 71.5%. The viability, T/C (second compound 0.03 µM, first compound 0.1 µM) was 75.4%, the viability, T/C (second compound 0.03 µM, first compound 0.316 µM) was 82.5% and the viability, T/C (second compound 0.03 µM, first compound 1 µM) was 69.4%. For the same compound, the viability, T/C (second compound 0.0949 µM, first compound 0.00316 µM) was 81.6%, the viability, T/C (second compound 0.0949 µM, first compound 0.01 µM) was 75.9% and the viability, T/C (second compound 0.0949 µM, first compound 0.0316 µM) was 77.6%. It also gave a viability, T/C (second compound 0.0949 µM, first compound 0.1 µM) of 79.7%, a viability, T/C (second compound 0.0949 µM, first compound 0.316 µM) of 77.7% and a viability, T/C (second compound 0.0949 µM, first compound 1 µM) of 77%. It also gave a viability, T/C (second compound 0.3 µM, first compound 0.00316 µM) of 65.4%, a viability, T/C (second compound 0.3 µM, first compound 0.01 µM) of 69.2% and a viability, T/C (second compound 0.3 µM, first compound 0.0316 µM) of 61.2%. It also gave a viability, T/C (second compound 0.3 µM, first compound 0.1 µM) of 70.7%, a viability, T/C (second compound 0.3 µM, first compound 0.316 µM) of 68% and a viability, T/C (second compound 0.3 µM, first compound 1 µM) of 69.6%.
